According to ChEMBL document CHEMBL3044748, “Phyllostictines AD, oxazatricycloalkenones produced by Phyllosticta cirsii, a potential mycoherbicide for Cirsium arvense biocontrol” (Tetrahedron, 2008):
Active and inactive are the calls of the source. The calls are words filed in the database; no cut-off is given here.

Tests used:
Cirsium arvense = experiment: Phytotoxic activity against Cirsium arvense (Canada thistle) assessed as necrosis spot at 6 x 10^-3 M after 3 days by leaf puncture assay; type: functional, organism-based
[1] = Zootoxic activity against larvae of Artemia salina (brine shrimp) assessed as mortality at 10^-4 M; type: ADME, organism-based; settings: in vivo
Geotrichum candidum = experiment: Antifungal activity against Galactomyces geotrichum up to 100 ug/disk; type: functional, organism-based
Lactobacillus sp. = experiment: Antibacterial activity against Lactobacillus sp. at 5 ug/disk; type: functional, organism-based
Escherichia coli = experiment: Antibacterial activity against Escherichia coli up to 100 ug/disk; type: functional, organism-based
Artemia salina = experiment: Zootoxic activity against larvae of Artemia salina (brine shrimp) assessed as mortality; type: ADME, organism-based; settings: in vivo

SMILES | Activity (Cirsium arvense) | mortality at 100 µM [1] | Activity (Geotrichum candidum) | Activity (Lactobacillus sp.) | Activity (Escherichia coli) | Activity (Artemia salina)
CCN1C(=O)/C2=C3\CO[C@@](OC)([C@@H](O)CCCCC[C@]21C(C)O)[C@H]3O (some centres not stated) | inactive | – | – | – | – | –
CO[C@]12OC/C(=C3\C(=O)N(C)CC[C@]3(C)C(=O)CCCC[C@@H]1O)[C@@H]2O | Active | – | – | – | – | –
CCN1C(=O)/C2=C3\CO[C@@](OC)([C@@H](O)CCCCC[C@]21C)[C@H]3O [PHYLLOSTICTINE A] | Active | 24% | inactive | Active | inactive | –
CCN1C(=O)/C2=C3\CO[C@@](OC)([C@@H](O)CCC[C@]21C)[C@H]3O [PHYLLOSTICTINE B] | Active | – | inactive | Active | inactive | Non-toxic
